Source: patent US12673025B2, “Pegylated liposomes and uses thereof” (LT BIOPHARMA INC., priority 2024, dated 2026)
≈ marks a conversion by molar mass, not a printed value. Read-outs that look alike come from different tables or passages of the source.

How the values were obtained:
[1] = tested on: Staphylococcus aureus (ATCC19636); assay: MIC broth microdilution assay; assay type: cell-based
[2] = tested on: Vancomycin-Resistant Staphylococcus aureus (VRSA01); assay: MIC broth microdilution assay; assay type: cell-based
Method: (§1) For the purpose of antimicrobial activity evaluation of liposome encapsulated nosiheptide, bacteria strain was cultivated in tryptic soy broth (Difco, Becton, Dickinson, Sparks, MD) or brain heart infusion broth (Difco, Becton, Dickinson, Sparks, MD) at 37° C. for 16˜18 hours to the stationary phase. After that, 1000 μl of inoculums were treated to 15 ml tryptic soy broth medium and incubated at 37° C. for 3˜4 hours. Bacteria counts were determined to 5×10^5 CFU/ml for antimicrobial activity via absorbance value of OD600 (1 OD600=1×10^8 CFU/ml) by spectrophotometer. (Ultraspec 2100 Pro, UV/Visible spectrophotometer, Biochrom, Massachusetts, USA)
(§2) The minimum inhibitory concentration values of peptides and liposome encapsulated peptides were evaluated by standard broth microdilution assay which was referred to the guideline of the Clinical and Laboratory Standards Institute (CLSI) (M27-A4., C.a.L.S.I.a.s.t.e.C.d., Reference method for broth dilution antifungal susceptibility testing of yeasts. Clinical and Laboratory Standards Institute, Wayne, PA., 2017). MIC assays were carried out with initial bacterial inoculum of 5×10^5 colony forming units (CFU/ml) in suitable medium. Peptides and liposome encapsulated peptides were added to polystyrene 96-well plates with serial dilution. Vancomycin-Resistant Staphylococcus aureus (VRSA01), Staphylococcus aureus (ATCC29213), Staphylococcus aureus (ATCC33591), Pseudomonas aeruginosa (ATCC278533) were cultivated in TSB broth. MICs was preliminarily defined as the lowest concentration of peptides which inhibited the 90% visible growth of bacteria.
(§3) The concentration-diluted peptide was treated 1 μl in 96-well plates. Subsequently, 99 μl medium which containing 5×10^5 CFU/ml bacteria inoculum were loaded individually in each wells, the serial-diluted concentration of peptide were from 8 to 0.0625 μg/ml. Evaluation of bacterial growth were performed by measuring the OD at 600 nm in a microplate reader (TECAN, Sunrise™) over 16 hours at 37° C. Medium-treated wells were used as the control, and all experiments were carried out in triplicate.

[3] = tested on: Pseudomonas aeruginosa ATCC 27853; assay: MIC broth microdilution assay; assay type: cell-based; conditions: for antibacterial activity: Pseudomonas aeruginosa (ATCC278533); for MIC: ATCC27853
Method: as §1, §2, §3

[4] = tested on: Staphylococcus aureus (ATCC33591); assay: MIC broth microdilution assay; assay type: cell-based
Method: as §1, §2, §3

[5] = tested on: Staphylococcus aureus (ATCC29213); assay: MIC broth microdilution assay; assay type: cell-based
Method: as §1, §2, §3

[6] = tested on: Staphylococcus aureus (ATCC33591); assay: Murine model of i.v. S. aureus infection (survival); assay type: in vivo, mice; conditions: 20 mg/kg i.v. at 1 and 8 hours after infection
Method: Establishment of murine injection model of was assessed to test in vivo efficacy of nosiheptide liposome. Eight-week-old female ICR mice (LASCO, Taipei, Taiwan) were injected i.v. with 1×10^9 CFU/ml of Staphylococcus aureus (ATCC33591) strain in PBS buffer (pH=7.42).

[7] = tested on: VRSA 01; assay: Time-kill analysis; assay type: cell-based, Staphylococcus aureus; conditions: ¼×MIC
Method: The antimicrobial activity of nosiheptide and nosiheptide liposome against VRSA 01 were assessed by time-kill analysis. VRSA 01 was cultured in TSB medium overnight. After that, fresh TSB was inoculated for growth to mid-logarithmic phase. Bacteria was added at starting inoculum of 5×10^9 CFU/ml. Nosiheptide and nosiheptide liposome were added to final concentrations with 1×MIC and ¼×MIC, the value of MICs were determined in previous experiments. Bacteria with only medium was regarded as the grown control. The cultures were incubated in 37° C. shaking incubator, and aliquots were removed from each tube at 1, 2, 4, 8, 24 hours and serially diluted for CFU enumeration on TSA plates. To compare rates of antibiotic killing, the decline of viable bacteria (Log10 CFU/ml) was evaluated at the measured time points. Experiments were repeated independently in triplicate. The lower limit of detection for the colony counts was 2 log10 CFU/ml.

[8] = tested on: A549 cells; assay: MTT cell viability assay; assay type: cell-based; conditions: Homo sapiens, A549 lung cancer cells, 24 h
Method: (§4) The MTT assay was performed to determine cell viability. 5×10^3 cells per well with 100 μl cell medium were plated in 96-well plates, incubating for 24 hours. Then, the cell medium in plates was removed and each well was treated medium with free nosiheptide or liposome encapsulated nosiheptide in serial-diluted concentration from 3.125 to 50 μM. The medium with PBS buffer was regarded as the control group. After incubating 24 hours, the medium was removed and 100 μl medium-diluted 10% MTT was added in the 96 well plate. After incubation for 3 hours, the MTT solution was removed and the residual formazan crystal was dissolved with 100 μl DMSO (Dimethyl sulfoxide, Sigma Aldrich). The cell viability was determined by measuring the absorbance at 570 nm using ELISA Reader (TECAN, Sunrise™), and the data was calculated by the following formula: […]
(§5) The range of IC50 values was obtained by observing the curve, and all experiments were carried out in triplicate.

[9] = tested on: HFW cells; assay: MTT cell viability assay; assay type: cell-based; conditions: HFW normal cells, 24 h
Method: as §4, §5

| Compound | MIC [1] [mg/L] | antibacterial activity [1] | MIC ([2]; Staphylococcus aureus) [mg/L] | antibacterial activity [3] | MIC ([3]; Pseudomonas aeruginosa) [mg/L] | MIC [4] [mg/L] | MIC [5] [mg/L] | survival rate ([6]; end of study (7 days)) [%] | mice died during the first two days ([6]; first two days) | time to 2-log kill [7] [hours] | MIC ([1]; read-out: MIC) [mg/L] | MIC ([2]; Vancomycin Resistant Staphylococcus aureus 01, read-out: MIC) [mg/L] | MIC ([3]; Pseudomonas aeruginosa ATCC 27853, read-out: MIC) [mg/L] | MIC ([4]; read-out: MIC) [mg/L] | MIC ([5]; read-out: MIC) [mg/L] | IC50 [8] [µM] | IC50 [9] [µM] |
| --- | --- | --- | --- | --- | --- | --- | --- | --- | --- | --- | --- | --- | --- | --- | --- | --- | --- |
| C=C(NC(=O)C(=C)NC(=O)c1csc(C2=N[C@@H]3c4csc(n4)[C@H]4NC(=O)c5csc(n5)[C@H]([C@](C)(O)[C@@H](C)O)NC(=O)[C@H]5CSC(=N5)/C(=C/C)NC(=O)[C@H]([C@@H](C)O)NC(=O)c5csc(n5)[C@]3(CC2)NC(=O)[C@H](C)NC(=O)C(=C)NC(=O)[C@H](C)NC(=O)[C@H]([C@@H](C)CC)N[C@@H]2C=Cc3c([C@H](C)O)cc(nc3[C@H]2O)C(=O)O[C@@H]4C)n1)C(N)=O [Thiostrepton Free, Thiostrepton] | > 8 | no antibacterial activity | 0.25 (≈ 0.15 µM) | no antibacterial activity | > 8 | 0.625 (≈ 0.375 µM) | 0.625 (≈ 0.375 µM) | – | – | – | – | – | – | – | – | – | – |
| C=C(NC(=O)c1csc(-c2nc3c(cc2O)-c2nc(cs2)C(=O)NC(C(C)O)C(=O)N/C(=C\C)c2nc(cs2)C(=O)NC2CC(O)C(=O)OCc4cccc5[nH]c(c(C)c45)C(=O)SCC(NC(=O)c4csc2n4)c2nc-3cs2)n1)C(N)=O (stereo not shown) [Nosiheptide Free, Nosiheptide] | – | no antibacterial activity | – | no antibacterial activity | – | – | – | 62.5 | ⅜ | 4 | > 8 | 0.0625 (≈ 0.0511 µM) | > 8 | 0.0625 (≈ 0.0511 µM) | 0.125 (≈ 0.102 µM) | 26.2 ± 5.26 | 28.3 ± 9.23 |
